Experimental data from PMC3086468 (Journal of medicinal chemistry, 2011).
Read-outs that look alike come from different tables or passages of the source.

Legend:
JTAg cells = assay: TCR signaling in JTAg cells, Western blot; format: cell-based, human; details: for TCR-induced phosphorylation of Lck at Y394: 50 μM compound, C305 stimulation 2 min, anti-pSrc(Y416) blot
Pep = assay: Lck Y394 phosphorylation in Ptpn22+/+ and Ptpn22−/− mouse T cells; format: cell-based; details: 50 μM, stimulated with anti-CD3 and anti-CD4
primary human T cells = assay: TCR-induced phosphorylation in primary human T cells; format: cell-based; details: 50 μM, anti-CD3/anti-CD28 1 min
LYP = target: T1, LYP (Homo sapiens, UniProt Q9Y2R2); format: biochemical
T1 sequence (Q9Y2R2 2-309): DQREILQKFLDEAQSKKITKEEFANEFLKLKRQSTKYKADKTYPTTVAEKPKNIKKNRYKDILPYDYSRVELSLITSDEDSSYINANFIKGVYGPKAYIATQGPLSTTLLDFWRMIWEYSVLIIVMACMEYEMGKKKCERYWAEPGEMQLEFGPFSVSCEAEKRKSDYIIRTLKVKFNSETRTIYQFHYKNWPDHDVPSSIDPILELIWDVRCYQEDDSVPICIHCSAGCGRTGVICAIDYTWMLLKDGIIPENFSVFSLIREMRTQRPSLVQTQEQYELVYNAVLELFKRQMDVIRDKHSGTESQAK

Compound: CCOc1ccc2nc(NC(=O)CSc3nc4sc(C)c(C)c4c(=O)[nH]3)sc2c1 [Compound 1]
- TCR-induced phosphorylation of Lck at Y394 (JTAg cells; JTAg cells): lack of activity

Compound: CCc1cccc(C)c1NC(=O)CSc1nc2c(C)ccc(C)c2cc1C#N [Compound 2]
- phosphorylation of Lck at Y505 (JTAg cells; JTAg cells treated with compound (data not shown)): unable to detect increased phosphorylation of Lck at Y505
- TCR-induced phosphorylation of Lck at Y394 (JTAg cells; JTAg cells): lack of activity

Compound: Cc1ccc2[nH]c(=O)c(C(c3nnnn3C3CCCC3)N3CCCC4(CCCCC4)C3)cc2c1 (centres unmarked) [Compound 4]
- ERK1/2 phosphorylation (JTAg cells; JTAg cells, 50 μM, C305 2 min): increased ERK1/2 phosphorylation
- TCR-stimulated phosphorylation of ZAP70 (JTAg cells; JTAg cells, 50 μM, C305 2 min): increased TCR-stimulated phosphorylation of ZAP70
- Lck phosphorylation at Y394, wild type (Ptpn22+/+) T cells (Pep): increased Lck phosphorylation at Y394
- Lck phosphorylation, Ptpn22−/− T cells (Pep): no effect on phosphorylation of Lck
- TCR-induced phosphorylation of Lck, ZAP70 and LAT (primary human T cells): equally able to boost TCR-induced phosphorylation of Lck, ZAP70, and linker for activation of T cells (LAT)

Compound: Cc1ccc2[nH]c(=O)c(C(c3nnnn3C3CCCC3)N3CCN(C(c4ccccc4)c4ccccc4)CC3)cc2c1 (centres unmarked) [Compound 4f]
- relationship between IC50 and substrate concentration (LYP): independent from substrate concentration
- α (LYP; pH 6): 1.93 ± 1.27

Compound: Cc1ccc2[nH]c(=O)c(C(c3nnnn3C3CCCC3)N(Cc3ccccc3)Cc3ccc(Cl)cc3)cc2c1 (centres unmarked) [Compound 4g]
- dual inhibition plot vs compound 13 (LYP; 13.72 μM pY peptide, 25 nM LYP): converging lines
- α (LYP; mixed model inhibition fit, pY peptide, pH 6.0, 37 °C): 2.96 ± 2.48
- relationship between IC50 and substrate concentration (LYP; pY peptide, 25 nM LYP): independent from substrate concentration

Compound: O=C(CSc1nc(C2CC2)nc2sc3c(c12)CCCC3)NCc1ccc2c(c1)OCO2 [Compound 6]
- TCR-induced phosphorylation of Lck at Y394 (JTAg cells; JTAg cells): lack of activity
